Test results: the NIST ThermoML archive (doi:10.1016/j.jct.2017.01.016)

Assay: xn = mol fraction of the nth substance listed
Details: 101 kPa, Liquid; for viscosity: Capillary tube (Ostwald / Ubbelohde) method; for speed of sound: Frequency=3 MHz, Linear variable-path acoustic interferometer

Cc1ccc(C)cc1 [1,4-dimethylbenzene] + C1COCCO1
Details	speed of sound [m/s]	viscosity [mPa·s]
293.15 K, x2 = 0	1328.4	0.6505
293.15 K, x2 = 0.0716	1326.1	0.6921
293.15 K, x2 = 0.1445	1324.1	0.7358
293.15 K, x2 = 0.2132	1322.7	0.7779
293.15 K, x2 = 0.2871	1321.7	0.8239
293.15 K, x2 = 0.3582	1321.3	0.8691
293.15 K, x2 = 0.4358	1321.6	0.9192
293.15 K, x2 = 0.5042	1322.7	0.964
293.15 K, x2 = 0.5846	1325	1.018
293.15 K, x2 = 0.6543	1328.1	1.065
293.15 K, x2 = 0.7249	1332.5	1.113
293.15 K, x2 = 0.7923	1338.1	1.159
293.15 K, x2 = 0.8623	1345.6	1.208
293.15 K, x2 = 0.9311	1355.2	1.257
298.15 K, x2 = 0	1307.4	0.6115
298.15 K, x2 = 0.0716	1305.1	0.6484
298.15 K, x2 = 0.1445	1303.2	0.6871
298.15 K, x2 = 0.2132	1301.9	0.7245
298.15 K, x2 = 0.2871	1300.9	0.7654
298.15 K, x2 = 0.3582	1300.5	0.8054
298.15 K, x2 = 0.4358	1300.8	0.8499
298.15 K, x2 = 0.5042	1301.8	0.8898
298.15 K, x2 = 0.5846	1304	0.9374
298.15 K, x2 = 0.6543	1307	0.9792
298.15 K, x2 = 0.7249	1311.2	1.022
298.15 K, x2 = 0.7923	1316.6	1.064
298.15 K, x2 = 0.8623	1323.9	1.107
298.15 K, x2 = 0.9311	1333.1	1.151
303.15 K, x2 = 0	1287.3	0.5766
303.15 K, x2 = 0.0716	1285.1	0.6095
303.15 K, x2 = 0.1445	1283.2	0.644
303.15 K, x2 = 0.2132	1281.9	0.677
303.15 K, x2 = 0.2871	1280.9	0.7133
303.15 K, x2 = 0.3582	1280.5	0.7488
303.15 K, x2 = 0.4358	1280.8	0.7884
303.15 K, x2 = 0.5042	1281.8	0.8239
303.15 K, x2 = 0.5846	1283.9	0.8663
303.15 K, x2 = 0.6543	1286.8	0.9037
303.15 K, x2 = 0.7249	1290.8	0.9422
303.15 K, x2 = 0.7923	1296	0.9792
303.15 K, x2 = 0.8623	1303	1.018
303.15 K, x2 = 0.9311	1311.9	1.057
308.15 K, x2 = 0	1267.6	0.544
308.15 K, x2 = 0.0716	1265.4	0.5737
308.15 K, x2 = 0.1445	1263.6	0.605
308.15 K, x2 = 0.2132	1262.2	0.635
308.15 K, x2 = 0.2871	1261.2	0.6677
308.15 K, x2 = 0.3582	1260.8	0.6999
308.15 K, x2 = 0.4358	1261	0.7358
308.15 K, x2 = 0.5042	1261.8	0.768
308.15 K, x2 = 0.5846	1263.8	0.8064
308.15 K, x2 = 0.6543	1266.5	0.8403
308.15 K, x2 = 0.7249	1270.4	0.875
308.15 K, x2 = 0.7923	1275.4	0.9086
308.15 K, x2 = 0.8623	1282	0.9441
308.15 K, x2 = 0.9311	1290.5	0.9791
313.15 K, x2 = 0	1248.3	0.5132
313.15 K, x2 = 0.0716	1246.2	0.5407
313.15 K, x2 = 0.1445	1244.3	0.5693
313.15 K, x2 = 0.2132	1242.9	0.5968
313.15 K, x2 = 0.2871	1241.9	0.6269
313.15 K, x2 = 0.3582	1241.4	0.6565
313.15 K, x2 = 0.4358	1241.6	0.6894
313.15 K, x2 = 0.5042	1242.3	0.7189
313.15 K, x2 = 0.5846	1244.1	0.7542
313.15 K, x2 = 0.6543	1246.7	0.7853
313.15 K, x2 = 0.7249	1250.3	0.8172
313.15 K, x2 = 0.7923	1255	0.8479
313.15 K, x2 = 0.8623	1261.4	0.8802
313.15 K, x2 = 0.9311	1269.5	0.9126
318.15 K, x2 = 0	1229.8	0.4862
318.15 K, x2 = 0.0716	1227.7	0.5116
318.15 K, x2 = 0.1445	1225.8	0.538
318.15 K, x2 = 0.2132	1224.4	0.5633
318.15 K, x2 = 0.2871	1223.3	0.5911
318.15 K, x2 = 0.3582	1222.8	0.6185
318.15 K, x2 = 0.4358	1222.8	0.6488
318.15 K, x2 = 0.5042	1223.4	0.676
318.15 K, x2 = 0.5846	1225	0.7084
318.15 K, x2 = 0.6543	1227.4	0.737
318.15 K, x2 = 0.7249	1230.8	0.7663
318.15 K, x2 = 0.7923	1235.2	0.7946
318.15 K, x2 = 0.8623	1241.3	0.8244
318.15 K, x2 = 0.9311	1248.9	0.854

C1COCCO1 [1,4-dioxane] + Cc1ccccc1
Details	speed of sound [m/s]	viscosity [mPa·s]
293.15 K, x1 = 0.0688	1330.1	0.6346
293.15 K, x1 = 0.1373	1331.5	0.6812
293.15 K, x1 = 0.2112	1333	0.732
293.15 K, x1 = 0.2858	1334.8	0.784
293.15 K, x1 = 0.3552	1336.5	0.8327
293.15 K, x1 = 0.4361	1338.6	0.8901
293.15 K, x1 = 0.5064	1340.7	0.9405
293.15 K, x1 = 0.5819	1343.2	0.9951
293.15 K, x1 = 0.6506	1346	1.045
293.15 K, x1 = 0.7212	1349.1	1.097
293.15 K, x1 = 0.7903	1352.5	1.148
293.15 K, x1 = 0.864	1356.9	1.203
293.15 K, x1 = 0.9336	1361.8	1.256
293.15 K, x1 = 1	1367.2	1.306
298.15 K, x1 = 0.0688	1308.4	0.5952
298.15 K, x1 = 0.1373	1309.5	0.6366
298.15 K, x1 = 0.2112	1310.9	0.682
298.15 K, x1 = 0.2858	1312.4	0.7282
298.15 K, x1 = 0.3552	1313.9	0.7716
298.15 K, x1 = 0.4361	1315.9	0.8229
298.15 K, x1 = 0.5064	1317.9	0.8679
298.15 K, x1 = 0.5819	1320.4	0.9166
298.15 K, x1 = 0.6506	1323.2	0.9613
298.15 K, x1 = 0.7212	1326.3	1.008
298.15 K, x1 = 0.7903	1329.8	1.053
298.15 K, x1 = 0.864	1334.2	1.103
298.15 K, x1 = 0.9336	1339.1	1.15
298.15 K, x1 = 1	1344.7	1.195
303.15 K, x1 = 0.0688	1286.3	0.56
303.15 K, x1 = 0.1373	1287.2	0.597
303.15 K, x1 = 0.2112	1288.4	0.6373
303.15 K, x1 = 0.2858	1289.7	0.6785
303.15 K, x1 = 0.3552	1291.2	0.7173
303.15 K, x1 = 0.4361	1293.2	0.7631
303.15 K, x1 = 0.5064	1295.2	0.8033
303.15 K, x1 = 0.5819	1297.8	0.8469
303.15 K, x1 = 0.6506	1300.6	0.887
303.15 K, x1 = 0.7212	1303.9	0.9286
303.15 K, x1 = 0.7903	1307.5	0.9696
303.15 K, x1 = 0.864	1312.2	1.014
303.15 K, x1 = 0.9336	1317.3	1.056
303.15 K, x1 = 1	1323.1	1.096
308.15 K, x1 = 0.0688	1264.8	0.5284
308.15 K, x1 = 0.1373	1265.5	0.5619
308.15 K, x1 = 0.2112	1266.5	0.5984
308.15 K, x1 = 0.2858	1267.7	0.6357
308.15 K, x1 = 0.3552	1269	0.6709
308.15 K, x1 = 0.4361	1270.9	0.7124
308.15 K, x1 = 0.5064	1272.9	0.7489
308.15 K, x1 = 0.5819	1275.4	0.7885
308.15 K, x1 = 0.6506	1278.2	0.8249
308.15 K, x1 = 0.7212	1281.6	0.8627
308.15 K, x1 = 0.7903	1285.3	0.8998
308.15 K, x1 = 0.864	1290.1	0.9399
308.15 K, x1 = 0.9336	1295.3	0.978
308.15 K, x1 = 1	1301.2	1.014
313.15 K, x1 = 0.0688	1242.8	0.4969
313.15 K, x1 = 0.1373	1243.4	0.5278
313.15 K, x1 = 0.2112	1244.3	0.5615
313.15 K, x1 = 0.2858	1245.4	0.596
313.15 K, x1 = 0.3552	1246.7	0.6284
313.15 K, x1 = 0.4361	1248.6	0.6666
313.15 K, x1 = 0.5064	1250.6	0.7003
313.15 K, x1 = 0.5819	1253.2	0.7368
313.15 K, x1 = 0.6506	1256	0.7702
313.15 K, x1 = 0.7212	1259.4	0.805
313.15 K, x1 = 0.7903	1263.3	0.8393
313.15 K, x1 = 0.864	1268.2	0.8762
313.15 K, x1 = 0.9336	1273.6	0.9114
313.15 K, x1 = 1	1279.7	0.945
318.15 K, x1 = 0.0688	1221	0.467
318.15 K, x1 = 0.1373	1221.5	0.4958
318.15 K, x1 = 0.2112	1222.3	0.5272
318.15 K, x1 = 0.2858	1223.3	0.5593
318.15 K, x1 = 0.3552	1224.6	0.5895
318.15 K, x1 = 0.4361	1226.5	0.6251
318.15 K, x1 = 0.5064	1228.6	0.6564
318.15 K, x1 = 0.5819	1231.2	0.6903
318.15 K, x1 = 0.6506	1234.1	0.7215
318.15 K, x1 = 0.7212	1237.6	0.7539
318.15 K, x1 = 0.7903	1241.6	0.7857
318.15 K, x1 = 0.864	1246.7	0.82
318.15 K, x1 = 0.9336	1252.3	0.8527
318.15 K, x1 = 1	1258.6	0.884
